# Results reported in US20200345725A1, “Methods and Compositions for Treating Cancer” (Omeros Corporation, priority 2019, published 2020).
# Experiments:
# Format in all cases: cell-based
# ADBR2 [1] = target: T1, ADBR2 (Homo sapiens, UniProt P07550); test: GloSensor cAMP assay with ADBR2
# T1 construct: host or cells: HEK293 or CHO cell lines (ATCC)
# GPR174 [2] = target: T2, GPR174 (Homo sapiens, UniProt Q9BXC1); test: CRE-Luc reporter Gs signaling assay with GPR174; design: host or cells: HEK293 or CHO cell lines (ATCC); details: for Human GPR174 CRE Activity: nature of the compound (IA, antagonist, NM): pCRE-Luc reporter
# Target sequence in this assay (Q9BXC1 whole entry): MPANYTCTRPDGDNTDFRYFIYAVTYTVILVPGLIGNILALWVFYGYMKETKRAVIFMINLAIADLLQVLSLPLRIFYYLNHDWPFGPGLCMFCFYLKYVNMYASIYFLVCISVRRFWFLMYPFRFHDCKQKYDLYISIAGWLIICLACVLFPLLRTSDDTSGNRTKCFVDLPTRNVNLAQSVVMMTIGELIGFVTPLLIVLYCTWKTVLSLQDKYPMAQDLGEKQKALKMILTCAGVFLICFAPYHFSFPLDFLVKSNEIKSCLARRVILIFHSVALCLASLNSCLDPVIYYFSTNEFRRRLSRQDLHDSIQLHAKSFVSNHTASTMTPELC
# GPR174 [3] = target: T2, GPR174; test: Cellular redistribution assay (CRA) for GPR174
# Description: One method for identifying compounds capable of modulating a receptor is using a cellular redistribution assay (“CRA”). Exemplary CRA methods are found in U.S. Pat. No. 7,309,576 issued to O'Dowd et al. and in O'Dowd et al., J. Biomol. Screen. 12:175-85,2007. […] Incorporation of the NLS alters the cellular localization of the GPCR, such that the majority of the NLS-modified receptor is present in the cell interior. An NLS-modified GPCR, when interacting with a functionally active compound, is mostly localized on the cell surface. Thus, it becomes possible to identify receptor modulators without knowledge of the endogenous ligand or a surrogate ligand.
# The inventors have identified a number of compounds that inhibit GPR174 using a CRA assay similar to that described in U.S. Pat. No. 7,309,576 and in O'Dowd et al., J. Biomol. Screen. 12:175-85, 2007. These compounds are described in detail below.
# (§1) The inventors used a CRA similar to that described in U.S. Pat. No. 7,309,576 and O'Dowd et al., J. Biomol. Screen. 12:175-85, 2007 to identify compounds that are capable of interacting with GPR174 using a library of approximately 370,000 chemical entities. Briefly described, the CRA assay described in U.S. Pat. No. 7,309,576 involves artificially inserting a NLS into the dopamine D1 receptor (DRD1), which allows the receptor to traffic from the cell membrane to the cell interior, and that the binding of antagonists to the receptor retained the receptor at the cell surface, while removal of the ligand allowed the receptor to continue to internalize from the cell surface. Both antagonists and agonists that selectively bound the receptor retained the receptor on the plasma membrane. GPR174 constructs were generated for use in a CRA-based compound screening assay. From this screen, the inventors initially identified compounds of formula I-VI, as described herein and included in Table 1.
# Target sequence in this assay (Q9BXC1 1-292 limits assumed): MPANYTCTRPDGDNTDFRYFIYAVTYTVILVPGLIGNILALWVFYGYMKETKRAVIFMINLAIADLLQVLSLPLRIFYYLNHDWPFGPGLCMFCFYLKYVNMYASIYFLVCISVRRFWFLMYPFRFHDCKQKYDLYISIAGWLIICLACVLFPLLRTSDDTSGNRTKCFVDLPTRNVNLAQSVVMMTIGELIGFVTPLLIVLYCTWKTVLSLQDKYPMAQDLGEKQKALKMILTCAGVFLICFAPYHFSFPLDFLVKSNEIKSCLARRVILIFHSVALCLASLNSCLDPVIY
# GPR174 [4] = target: T2, GPR174; test: GloSensor cAMP assay with GPR174, with or without agonist LysoPS; design: host or cells: HEK293 or CHO cell lines (ATCC)
# Experimental: In order to confirm that GPR174 interacting compound 4 is an antagonist of GPR174-mediated Gs signaling, a GloSensor assay was carried out with increasing concentrations of compound 4 in the presence or absence of a fixed concentration (1 μM) of the GPR174 agonist LysoPS as follows.
# The DNA/lipofectamine 2000 mix (3000 μL) was incubated at room temperature for 30 minutes and then added into a 10 cm culture dish (Corning, NY) containing 70-90% confluent cultured cells, typically HEK293 or CHO cell lines (ATCC, VA), in 15 mL of media. […] Media (26 mL) was added to the detached cells and 100 μL of transfected cells were transferred to each well on a 96-well plate. The cells were further incubated at 37° C. overnight. The following day, the media were removed and 100 μl of equilibration media (Promega) was added to each well to the manufacturer's directions. The cells were then incubated at room temperature for 2 hours and the cell plates were pre-read with a SpectraMax L (Molecular Devices, CA). After the pre-read, increasing concentrations of each compound in DMSO (1.0 μl) was added to the cells. The cell plates containing the compound were read immediately after the compound was added and at various times up to 30 minutes after the addition of the compound with a SpectraMax L (Molecular Devices, CA). Data were analyzed with either Excel (Microsoft, WA) or Prism 4.03 (GraphPad, CA).
# Target sequence in this assay (Q9BXC1 whole entry, species assumed): as the sequence (Q9BXC1 whole entry) above
# ADBR2 [5] = target: T1, ADBR2; test: CRE-Luc reporter assay with control receptor ADBR2
# Experimental: The DNA/lipofectamine 2000 mix (3000 μL) was incubated at room temperature for 30 minutes and then added into a 10 cm culture dish (Corning, NY) containing 70-90% confluent cultured cells, (HEK293 or CHO cell lines (ATCC, VA)), in 15 mL of media. […] The cells were further incubated at 37° C. for various times. The media were removed and the cells lysed.
# Compounds were tested in the reporter system with increasing concentrations of GPR174-interacting compounds.
# The DNA/lipofectamine 2000 mix (3000 μL) was incubated at room temperature for 30 minutes and then added into a 10 cm culture dish (Corning, NY) containing 70-90% confluent cultured cells, typically HEK293 or CHO cell lines (ATCC, VA), in 15 mL of media. […] Media (26 mL) were added to the detached cells and 120 μL of transfected cells were transferred to each well on a 96-well plate. Increasing concentration of each compound in DMSO (1.2 μl) was added to the cells after plating into the 96-well plate. The cells were further incubated at 37° C. for various times. The media were removed, and the cells lysed.
# ADBR2 is a GPCR, like GPR174, that activates the Gs signaling pathway.
# CHRM1 = test: CRA against CHRM1
# Description: as §1
# The inventors also sought to validate that the compounds identified using the CRA are modulatory compounds. To this end, the above-described CRA was used to screen a library for compounds that interact with three control non-orphan receptors, and the results of this screen were compared to the results of screening the same library for compound that were identified using a Fluorometric Imaging Plate Reader (FLIPR) assay, a conventional technique commonly used to identify compounds interacting with non-orphan GPCRs signaling through Ca^++. Three non-orphan GPCRs—Muscarinic acetylcholine receptor M1 (CHRM1), Adrenergic receptor alpha 1a (ADRA1a), and Neuropeptide S receptor (NPSR)—were screened against a 10,000-compound GPCR-focused library. Thirty interacting compound “hits” were identified using the CRA, and eighty-one hits were identified using the FLIPR for the CHRM1 receptor; 9 CRA hits and 29 FLIPR hits for the NPS receptor were identified; and 110 CRA hits and 110 FLIPR hits for ADRA1a.
# In addition, the CRA can also provide the relative potencies of compounds against the target receptor.
# purified human T cells = test: Suppression of cytokine production from purified human T cells by PS liposomes and NECA (MesoScale Discovery); details: purified human CD3+ T cells, 24 hours, PS liposomes 1 μM, NECA
# Experimental: Purified human T cells (untouched total T cells, Astarte Biologies, Inc., CD3+ T cells in FIGS. 72A and 72B and CD8+ T cells in FIG. 72C) were stimulated in quadruplicate at 100,000 cells per well in 96-well flat bottom plates and X-vivo 15 media with the following reagents:
# ImmunoCult™ Human CD3/CD28 T Cell Activator (StemCell) (1:50 dilution)
# PS liposomes (1 μM) or media control
# Adenosine receptor agonist (NECA, 0.1 μM or 0.05 μM) or media control
# A combination of both reagents.
# After 24 hours of culture (44 hours for the results shown in FIG. 72C), culture media was analyzed for cytokines (MesoScale Discovery).
# A2bR = target: T3, A2bR (Homo sapiens, UniProt P29275); test: Cre-luciferase reporter assay, HEK293 cells transfected with A2bR; details: overnight incubation; read-out: A2B (IC50 nM)
# T3 construct: host or cells: HEK293
# T3 sequence (P29275 1-332): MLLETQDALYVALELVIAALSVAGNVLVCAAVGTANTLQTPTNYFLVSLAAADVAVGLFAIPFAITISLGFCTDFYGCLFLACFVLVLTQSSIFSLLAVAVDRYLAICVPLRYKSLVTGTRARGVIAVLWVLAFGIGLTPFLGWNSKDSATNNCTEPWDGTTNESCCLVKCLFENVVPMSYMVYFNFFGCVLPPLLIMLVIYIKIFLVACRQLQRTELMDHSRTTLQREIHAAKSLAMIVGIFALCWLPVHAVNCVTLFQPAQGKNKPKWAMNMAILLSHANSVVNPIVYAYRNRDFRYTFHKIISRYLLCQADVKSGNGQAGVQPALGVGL
# wild-type GPR174 = target: T4, wild-type GPR174 (Homo sapiens, UniProt Q9BXC1); test: GloSensor Gs signaling by phospholipids, HEK293 cells expressing wild-type GPR174; details: 10 nM to 10,000 nM
# T4 construct: expressed in transfected cells; host or cells: HEK293
# T4 sequence (Q9BXC1 whole entry): as the sequence (Q9BXC1 whole entry) above
# Experimental: (§2) Unilamellar liposomes of phosphatidylserine (PS) and other phospholipids were prepared by hydration in PBS and extrusion at 50-54° C. through a 0.1 micron filter using a mini-extruder (Avanti). Lysophosphatidylserine (Lyso-PS) is soluble.
# (§3) HEK293 cells were grown in 6-well plates and transfected using Lipofectamine 2000 (Thermo Fisher Scientific) with 300 ng/well of cAMP biosensor expressing plasmid pGlo22F (Promega) and 2 ng of a plasmid expressing wild-type GPR174 or 2 ng of a plasmid expressing a GPR174 mutant with lowered basal activity, referred to as “GPR174-v38.”
# 5-6 hours after transfection, the cells were trypsinized and plated at a density of 5000 cells/well into 96-well plates and incubated overnight. The next day, the culture medium was replaced with 100 μL/well of serum free medium X-vivo15 (Lonza) with 2% GloSensor Assay reagent (Promega). The plates were incubated for 1 hour at room temperature and measured in a luminometer to obtain the pre-compound values. […] The plates were measured in a luminometer to obtain the post-compound addition measurement. The ratio of post-compound addition to pre-compound addition measurements (i.e., the extent of Glosensor signal induction by an agonist) was determined. […]
# GPR174-v38 = GPR174-v38 (Homo sapiens, UniProt Q9BXC1); test: GloSensor Gs signaling by phospholipids, HEK293 cells expressing mutant GPR174-v38; details: 10 nM to 10,000 nM
# Experimental: as §2, §3
# 5-6 hours after transfection, the cells were trypsinized and plated at a density of 5000 cells/well into 96-well plates and incubated overnight. The next day, the culture medium was replaced with 100 μL/well of serum free medium X-vivo15 (Lonza) with 2% GloSensor Assay reagent (Promega). The plates were incubated for 1 hour at room temperature and measured in a luminometer to obtain the pre-compound values. […] The plates were measured in a luminometer to obtain the post-compound addition measurement. The ratio of post-compound addition to pre-compound addition measurements (i.e., the extent of Glosensor signal induction by an agonist) was determined.
# GPR174 [6] = target: T2, GPR174; test: GPR174 signaling assays with adenosine receptor inhibitors (data not shown); design: host or cells: HEK293 or CHO cell lines (ATCC)
# Description: It should be noted that the A2aR inhibitors tested belong to four distinct chemical classes and that none of them affects GPR174 signaling when tested in signaling assays (data not shown).
# Target sequence in this assay (Q9BXC1 whole entry, species assumed): as the sequence (Q9BXC1 whole entry) above
compound,measurement,setting,value
CCCC(=O)c1ccc(N2CCN(S(=O)(=O)c3ccc(C)cc3)CC2)c(F)c1 [compound 4],"Gs signaling in the presence of ADBR (GloSensor, FIG. 21B)",ADBR2 [1],neither compound 4 nor LysoPS modulate Gs signaling
same,Gs pathway in the presence of GPR174 (CRE-Luc reporter),GPR174 [2]; increasing concentrations of compound,did not modulate
same,"Human GPR174 CRE Activity: nature of the compound (IA, antagonist, NM)",GPR174 [2],GPR174 antagonist
same,"Human GPR174 CRE Activity: nature of the compound (IA, antagonist, NM)",GPR174 [2]; listed as Compound 4,GPR174 antagonist
same,dose-response curve against GPR174 in the CRA (FIG. 5A),GPR174 [3],show a dose-response curve
same,"competition with the GPR174 agonist LysoPS (GloSensor, FIG. 21A)",GPR174 [4]; LysoPS fixed at 1 μM,does compete
same,"Gs pathway in the presence of GPR174 (GloSensor, FIG. 21A)",GPR174 [4]; compound alone,does not modulate
same,Gs pathway in the presence of ADBR2 (CRE-Luc reporter),ADBR2 [5],did not modulate
same,activity against CHRM1 in the CRA (FIG. 5B),CHRM1,do not show any activity
CCNC(=O)[C@H]1O[C@@H](n2cnc3c(N)ncnc32)[C@H](O)[C@@H]1O [NECA],IL-2 FC vs Media,purified human T cells; FIG. 72A,0.42 fold change
same,IFN-γ FC vs Media,purified human T cells; FIG. 72B,0.31 fold change
Nc1nc(-n2cccn2)nc(-n2cccn2)c1Br [PBF-509],IC50,A2bR,680 nM
lysophosphatidylserine [LysoPS],"Gs signaling in the presence of ADBR (GloSensor, FIG. 21B)",ADBR2 [1],neither compound 4 nor LysoPS modulate Gs signaling
same,"GPR174 Gs signaling, wild-type GPR174 (FIG. 45A)",wild-type GPR174,stimulate GPR174 Gs signaling in a concentration-dependent manner
same,"GPR174 Gs signaling, mutant GPR174-v38 (FIG. 45B)",GPR174-v38,stimulate GPR174 Gs signaling in a concentration-dependent manner
CCCn1c(=O)c2[nH]c(-c3ccc(OCC(=O)Nc4ccc(C#N)cc4)cc3)nc2n(CCC)c1=O [MRS-1754],effect on GPR174 signaling,GPR174 [6],did not affect GPR174 signaling
